This is an account of results in ChEMBL document CHEMBL5291721, “A preclinical secondary pharmacology resource illuminates target-adverse drug reaction associations of marketed drugs” (Nat Commun, 2023).

As usually defined, the AC50 is the concentration at which the activity in the assay is half-maximal.

Each structure is given as a SMILES string. A value given as a limit tells only on which side of the number the result lay.

Test [1] concerns the target Rod cGMP-specific 3',5'-cyclic phosphodiesterase subunit alpha (Homo sapiens, UniProt P16499). The class given is functional.
Test [2] concerns the target T1, Androgen receptor (Rattus norvegicus, UniProt P15207).
T1 sequence (P15207 whole entry): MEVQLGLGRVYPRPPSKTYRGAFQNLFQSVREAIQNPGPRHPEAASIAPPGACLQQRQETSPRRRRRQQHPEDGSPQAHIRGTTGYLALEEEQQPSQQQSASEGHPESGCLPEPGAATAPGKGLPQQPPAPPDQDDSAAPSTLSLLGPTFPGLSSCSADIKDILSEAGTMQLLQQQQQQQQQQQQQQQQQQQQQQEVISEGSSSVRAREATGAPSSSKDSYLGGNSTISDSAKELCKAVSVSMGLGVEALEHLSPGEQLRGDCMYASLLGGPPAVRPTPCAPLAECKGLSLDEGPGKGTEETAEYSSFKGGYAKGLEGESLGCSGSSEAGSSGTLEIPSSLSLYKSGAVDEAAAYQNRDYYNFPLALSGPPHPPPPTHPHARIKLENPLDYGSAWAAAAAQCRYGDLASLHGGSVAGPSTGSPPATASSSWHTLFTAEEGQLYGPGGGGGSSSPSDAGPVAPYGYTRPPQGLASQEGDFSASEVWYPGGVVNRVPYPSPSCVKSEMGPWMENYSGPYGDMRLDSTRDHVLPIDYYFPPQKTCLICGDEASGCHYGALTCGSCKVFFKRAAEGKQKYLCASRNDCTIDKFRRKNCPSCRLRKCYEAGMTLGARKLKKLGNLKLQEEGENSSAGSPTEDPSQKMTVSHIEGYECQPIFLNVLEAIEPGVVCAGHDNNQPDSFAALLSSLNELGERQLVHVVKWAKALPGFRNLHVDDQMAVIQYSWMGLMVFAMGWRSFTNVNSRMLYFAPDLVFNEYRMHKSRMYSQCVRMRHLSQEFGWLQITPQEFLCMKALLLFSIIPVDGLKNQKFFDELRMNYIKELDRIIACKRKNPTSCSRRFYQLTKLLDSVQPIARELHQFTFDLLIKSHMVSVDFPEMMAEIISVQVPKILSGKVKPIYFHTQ

The target in test [3] is D(1B) dopamine receptor (Homo sapiens, UniProt P21918).
Test [4] has as its target 5-hydroxytryptamine receptor 5A (Homo sapiens, UniProt P47898).
Test [5] concerns the target Cannabinoid receptor 1 (Homo sapiens, UniProt P21554). In kind it is functional.
For test [6], the target named is T2, Muscarinic acetylcholine receptor M4 (Homo sapiens, UniProt P08173).
T2 sequence (P08173 whole entry): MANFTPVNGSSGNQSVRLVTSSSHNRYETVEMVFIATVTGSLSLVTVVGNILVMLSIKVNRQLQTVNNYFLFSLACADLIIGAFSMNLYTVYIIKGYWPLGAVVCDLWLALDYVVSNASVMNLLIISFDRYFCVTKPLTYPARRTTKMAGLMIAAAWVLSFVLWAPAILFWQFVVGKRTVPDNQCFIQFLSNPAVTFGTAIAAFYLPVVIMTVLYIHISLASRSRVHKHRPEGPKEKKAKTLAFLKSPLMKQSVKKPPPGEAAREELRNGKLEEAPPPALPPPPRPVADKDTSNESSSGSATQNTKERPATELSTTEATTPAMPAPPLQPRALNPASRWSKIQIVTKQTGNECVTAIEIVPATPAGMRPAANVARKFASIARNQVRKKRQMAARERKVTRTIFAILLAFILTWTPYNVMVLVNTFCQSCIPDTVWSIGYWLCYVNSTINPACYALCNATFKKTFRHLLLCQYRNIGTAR

Test [7] has as its target T3, Substance-K receptor (Homo sapiens, UniProt P21452).
T3 sequence (P21452 whole entry): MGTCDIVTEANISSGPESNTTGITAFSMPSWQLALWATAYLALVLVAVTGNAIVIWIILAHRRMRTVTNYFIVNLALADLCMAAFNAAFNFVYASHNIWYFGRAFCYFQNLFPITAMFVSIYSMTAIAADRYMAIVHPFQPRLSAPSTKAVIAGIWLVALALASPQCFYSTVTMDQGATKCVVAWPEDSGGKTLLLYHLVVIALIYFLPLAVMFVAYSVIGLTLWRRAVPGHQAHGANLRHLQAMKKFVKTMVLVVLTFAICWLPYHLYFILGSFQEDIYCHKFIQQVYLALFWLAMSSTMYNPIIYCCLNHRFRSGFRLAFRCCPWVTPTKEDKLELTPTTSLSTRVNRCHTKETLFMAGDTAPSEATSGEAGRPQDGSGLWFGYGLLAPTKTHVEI

Test [8] has as its target T1, Androgen receptor. The class given is functional.
For test [9], the target named is Voltage-dependent L-type calcium channel subunit alpha-1C (Homo sapiens, UniProt Q13936). In kind it is functional, cell-based.
The target of test [10] is T1, Androgen receptor. The class given is functional. This is another data set of the same source.
For test [11], the target named is T4, Histamine H1 receptor (Homo sapiens, UniProt P35367). In kind it is functional, cell-based.
In test [12] the target is T4, Histamine H1 receptor. The class given is functional, cell-based. This is another data set of the same source.
In test [13] the target is Retinoic acid receptor beta (Homo sapiens, UniProt P10826). In kind it is functional, cell-based.
The target in test [14] is T5, Peroxisome proliferator-activated receptor alpha (Homo sapiens, UniProt Q07869).
T5 sequence (Q07869 whole entry): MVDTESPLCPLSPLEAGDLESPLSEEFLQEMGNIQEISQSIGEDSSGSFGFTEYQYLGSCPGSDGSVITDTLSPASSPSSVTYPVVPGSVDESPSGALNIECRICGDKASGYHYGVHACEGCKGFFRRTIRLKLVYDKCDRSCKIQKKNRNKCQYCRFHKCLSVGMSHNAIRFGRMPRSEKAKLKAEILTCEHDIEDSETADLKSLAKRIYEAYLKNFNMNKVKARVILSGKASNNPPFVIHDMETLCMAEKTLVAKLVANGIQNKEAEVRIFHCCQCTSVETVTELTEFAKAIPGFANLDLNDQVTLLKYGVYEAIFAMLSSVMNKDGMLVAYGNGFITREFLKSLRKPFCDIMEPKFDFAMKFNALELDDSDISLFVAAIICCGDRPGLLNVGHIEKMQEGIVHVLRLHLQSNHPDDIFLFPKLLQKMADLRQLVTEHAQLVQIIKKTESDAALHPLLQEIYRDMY
The class given is functional.

Test [15] deals with Retinoic acid receptor gamma (Homo sapiens, UniProt P13631). The class given is functional, cell-based.
Note: assay procedure not described here.

Sequence of Voltage-dependent L-type calcium channel subunit alpha-1C (Q13936 whole entry): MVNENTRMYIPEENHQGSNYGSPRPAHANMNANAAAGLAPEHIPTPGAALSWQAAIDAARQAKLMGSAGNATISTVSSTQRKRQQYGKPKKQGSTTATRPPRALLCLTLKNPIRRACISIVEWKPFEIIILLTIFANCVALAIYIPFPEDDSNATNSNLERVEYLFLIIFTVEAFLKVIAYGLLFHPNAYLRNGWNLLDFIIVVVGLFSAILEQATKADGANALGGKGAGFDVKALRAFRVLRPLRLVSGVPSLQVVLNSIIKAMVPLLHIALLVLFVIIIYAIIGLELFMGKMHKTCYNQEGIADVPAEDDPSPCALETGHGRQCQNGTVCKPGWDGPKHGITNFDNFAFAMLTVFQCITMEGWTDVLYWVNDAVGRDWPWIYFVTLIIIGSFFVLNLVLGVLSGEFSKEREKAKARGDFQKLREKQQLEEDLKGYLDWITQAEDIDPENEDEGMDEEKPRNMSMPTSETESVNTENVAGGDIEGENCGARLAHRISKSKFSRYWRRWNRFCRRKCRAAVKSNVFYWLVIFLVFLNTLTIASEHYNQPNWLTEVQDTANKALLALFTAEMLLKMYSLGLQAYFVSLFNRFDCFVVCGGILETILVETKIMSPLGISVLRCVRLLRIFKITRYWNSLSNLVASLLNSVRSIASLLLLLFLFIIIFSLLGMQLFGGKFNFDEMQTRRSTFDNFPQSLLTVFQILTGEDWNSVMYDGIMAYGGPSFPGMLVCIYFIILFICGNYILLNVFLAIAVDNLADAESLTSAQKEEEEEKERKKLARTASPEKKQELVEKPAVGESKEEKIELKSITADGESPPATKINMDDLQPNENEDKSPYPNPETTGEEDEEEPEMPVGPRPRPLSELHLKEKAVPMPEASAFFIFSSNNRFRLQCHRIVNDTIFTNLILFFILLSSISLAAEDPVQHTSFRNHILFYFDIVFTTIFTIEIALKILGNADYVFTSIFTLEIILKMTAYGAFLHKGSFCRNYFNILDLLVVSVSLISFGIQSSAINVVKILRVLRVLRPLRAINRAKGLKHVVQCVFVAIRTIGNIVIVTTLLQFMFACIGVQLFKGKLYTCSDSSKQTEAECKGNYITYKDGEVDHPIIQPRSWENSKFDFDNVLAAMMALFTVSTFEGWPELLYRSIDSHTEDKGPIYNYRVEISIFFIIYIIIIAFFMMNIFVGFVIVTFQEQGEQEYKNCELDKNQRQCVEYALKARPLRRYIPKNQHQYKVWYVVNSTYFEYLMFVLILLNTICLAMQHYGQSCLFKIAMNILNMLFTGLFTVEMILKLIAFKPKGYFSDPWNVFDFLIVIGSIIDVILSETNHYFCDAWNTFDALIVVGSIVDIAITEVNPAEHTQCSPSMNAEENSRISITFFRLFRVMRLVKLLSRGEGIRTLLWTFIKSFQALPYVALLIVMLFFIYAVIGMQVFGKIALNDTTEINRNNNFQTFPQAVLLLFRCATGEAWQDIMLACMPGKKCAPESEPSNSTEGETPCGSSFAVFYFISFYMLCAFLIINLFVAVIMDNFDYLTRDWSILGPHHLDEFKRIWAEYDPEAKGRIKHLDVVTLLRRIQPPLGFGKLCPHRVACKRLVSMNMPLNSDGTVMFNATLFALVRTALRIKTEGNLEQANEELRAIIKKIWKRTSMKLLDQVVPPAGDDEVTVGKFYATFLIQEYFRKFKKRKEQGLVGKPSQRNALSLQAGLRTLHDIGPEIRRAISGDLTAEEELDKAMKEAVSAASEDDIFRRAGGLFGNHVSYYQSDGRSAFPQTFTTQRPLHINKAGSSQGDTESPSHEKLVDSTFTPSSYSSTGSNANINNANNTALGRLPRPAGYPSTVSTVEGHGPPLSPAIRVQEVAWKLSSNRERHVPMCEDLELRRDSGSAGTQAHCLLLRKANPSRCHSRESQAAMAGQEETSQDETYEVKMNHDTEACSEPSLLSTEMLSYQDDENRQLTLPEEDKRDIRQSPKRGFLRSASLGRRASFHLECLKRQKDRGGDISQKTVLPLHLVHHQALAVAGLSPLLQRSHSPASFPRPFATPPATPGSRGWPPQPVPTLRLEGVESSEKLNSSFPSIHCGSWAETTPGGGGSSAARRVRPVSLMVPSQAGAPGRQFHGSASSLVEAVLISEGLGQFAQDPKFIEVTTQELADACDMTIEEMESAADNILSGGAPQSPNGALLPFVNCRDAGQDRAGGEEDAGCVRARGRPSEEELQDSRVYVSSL
Sequence of Cannabinoid receptor 1 (P21554 whole entry): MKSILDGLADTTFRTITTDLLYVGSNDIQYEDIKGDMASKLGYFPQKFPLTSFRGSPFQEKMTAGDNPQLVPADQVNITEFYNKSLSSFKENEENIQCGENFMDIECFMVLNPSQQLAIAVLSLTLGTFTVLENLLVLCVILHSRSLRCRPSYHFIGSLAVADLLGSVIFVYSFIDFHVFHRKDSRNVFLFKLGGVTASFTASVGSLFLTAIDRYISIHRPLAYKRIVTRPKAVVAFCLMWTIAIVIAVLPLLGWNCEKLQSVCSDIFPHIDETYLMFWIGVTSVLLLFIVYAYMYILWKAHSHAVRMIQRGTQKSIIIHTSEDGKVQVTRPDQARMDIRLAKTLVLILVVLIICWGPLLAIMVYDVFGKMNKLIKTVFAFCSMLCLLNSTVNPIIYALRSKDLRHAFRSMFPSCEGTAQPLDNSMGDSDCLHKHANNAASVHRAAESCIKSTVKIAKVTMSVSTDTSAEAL
T4 sequence (P35367 whole entry): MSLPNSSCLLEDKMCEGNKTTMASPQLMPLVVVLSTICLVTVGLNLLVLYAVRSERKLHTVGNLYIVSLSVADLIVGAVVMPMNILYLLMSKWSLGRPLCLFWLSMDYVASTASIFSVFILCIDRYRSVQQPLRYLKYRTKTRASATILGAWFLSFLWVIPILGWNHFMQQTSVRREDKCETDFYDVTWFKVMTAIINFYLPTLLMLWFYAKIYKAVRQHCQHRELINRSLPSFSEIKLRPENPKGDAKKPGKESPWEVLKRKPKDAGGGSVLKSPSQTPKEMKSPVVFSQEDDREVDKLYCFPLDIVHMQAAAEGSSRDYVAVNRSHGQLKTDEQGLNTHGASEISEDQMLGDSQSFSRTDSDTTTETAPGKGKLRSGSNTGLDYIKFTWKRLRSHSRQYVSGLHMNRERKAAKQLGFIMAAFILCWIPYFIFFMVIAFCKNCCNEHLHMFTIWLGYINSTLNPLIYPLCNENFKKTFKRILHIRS
Sequence of 5-hydroxytryptamine receptor 5A (P47898 whole entry): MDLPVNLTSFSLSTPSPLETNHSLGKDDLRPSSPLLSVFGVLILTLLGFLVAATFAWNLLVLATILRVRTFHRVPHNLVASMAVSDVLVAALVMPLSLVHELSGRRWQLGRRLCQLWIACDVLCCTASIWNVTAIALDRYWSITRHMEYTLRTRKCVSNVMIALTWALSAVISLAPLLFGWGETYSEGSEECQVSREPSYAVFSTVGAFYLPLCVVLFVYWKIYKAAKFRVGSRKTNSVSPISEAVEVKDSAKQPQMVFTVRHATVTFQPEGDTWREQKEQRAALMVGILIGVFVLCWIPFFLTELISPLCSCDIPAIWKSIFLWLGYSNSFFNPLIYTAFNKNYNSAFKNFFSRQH
Sequence of D(1B) dopamine receptor (P21918 whole entry): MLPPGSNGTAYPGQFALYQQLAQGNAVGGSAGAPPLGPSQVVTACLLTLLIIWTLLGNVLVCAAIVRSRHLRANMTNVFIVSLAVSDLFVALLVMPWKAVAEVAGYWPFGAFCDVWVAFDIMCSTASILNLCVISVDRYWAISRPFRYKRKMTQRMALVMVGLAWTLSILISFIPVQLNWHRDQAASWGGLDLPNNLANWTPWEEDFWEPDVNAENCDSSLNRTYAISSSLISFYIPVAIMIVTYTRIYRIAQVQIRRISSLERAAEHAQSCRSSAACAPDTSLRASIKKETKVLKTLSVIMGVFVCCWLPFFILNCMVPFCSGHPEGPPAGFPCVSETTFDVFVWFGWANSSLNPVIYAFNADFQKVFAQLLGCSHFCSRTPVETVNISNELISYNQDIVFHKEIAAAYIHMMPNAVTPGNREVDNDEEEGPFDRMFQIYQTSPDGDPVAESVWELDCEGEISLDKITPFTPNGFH
Sequence of Rod cGMP-specific 3',5'-cyclic phosphodiesterase subunit alpha (P16499 whole entry): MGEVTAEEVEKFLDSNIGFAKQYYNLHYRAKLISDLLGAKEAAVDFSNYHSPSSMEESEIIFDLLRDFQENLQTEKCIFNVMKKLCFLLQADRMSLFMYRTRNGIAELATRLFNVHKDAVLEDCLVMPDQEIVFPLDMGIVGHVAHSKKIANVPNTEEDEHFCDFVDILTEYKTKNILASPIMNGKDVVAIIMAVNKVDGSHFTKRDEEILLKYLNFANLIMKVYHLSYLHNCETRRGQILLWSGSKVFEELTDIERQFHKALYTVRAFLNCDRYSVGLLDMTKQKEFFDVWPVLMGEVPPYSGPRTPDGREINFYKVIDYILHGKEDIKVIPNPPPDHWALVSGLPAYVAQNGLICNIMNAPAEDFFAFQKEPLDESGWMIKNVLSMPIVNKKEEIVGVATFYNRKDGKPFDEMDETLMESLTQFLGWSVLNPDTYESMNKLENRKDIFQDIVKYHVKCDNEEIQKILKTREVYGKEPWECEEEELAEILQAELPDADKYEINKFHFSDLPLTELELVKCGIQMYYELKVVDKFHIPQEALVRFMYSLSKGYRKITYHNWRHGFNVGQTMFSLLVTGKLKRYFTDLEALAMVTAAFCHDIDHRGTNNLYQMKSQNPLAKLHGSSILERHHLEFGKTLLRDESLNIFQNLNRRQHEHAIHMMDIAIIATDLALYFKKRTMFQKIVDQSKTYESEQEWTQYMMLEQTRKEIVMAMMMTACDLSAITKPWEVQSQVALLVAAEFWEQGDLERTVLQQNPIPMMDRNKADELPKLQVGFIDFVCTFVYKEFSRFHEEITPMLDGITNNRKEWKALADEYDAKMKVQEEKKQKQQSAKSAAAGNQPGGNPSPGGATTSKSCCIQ

As for `CCOc1nc2cccc(C(=O)O)c2n1Cc1ccc(-c2ccccc2-c2nnn[nH]2)cc1`, the AC50 in test [1] was over 10 µM; in [2], over 30 µM; in [3], over 10 µM; in test [4] it was over 10 µM; in test [5] it was over 10 µM; in [6], over 10 µM. For the same molecule, the AC50 was over 10 µM in test [7] and over 30 µM in test [8].

In the case of `CCCc1nc2c(C)cc(-c3nc4ccccc4n3C)cc2n1Cc1ccc(-c2ccccc2C(=O)O)cc1`, in test [5], the concentration at half-maximal activity (AC50) is over 10 µM.

With `CCOc1cc([C@@H](CS(C)(=O)=O)N2C(=O)c3cccc(NC(C)=O)c3C2=O)ccc1OC`, the values for the AC50 in test [9] and in test [8] were over 50 µM and over 30 µM, respectively.

Regarding `CC(C(=O)O)c1ccc2oc(-c3ccc(Cl)cc3)nc2c1` (stereo not given) [BENOXAPROFEN], the concentration at half-maximal activity (AC50) in [10] and in test [8] was over 30 µM each time.

Take `CC=CC1=C(C(=O)O)N2C(=O)[C@@H](NC(=O)[C@H](N)c3ccc(O)cc3)[C@H]2SC1` [CEFPROZIL]: the AC50 in [2] was over 30 µM.

Regarding `CCC(=O)O[C@]1(C(=O)CCl)[C@@H](C)C[C@H]2[C@@H]3CCC4=CC(=O)C=C[C@]4(C)[C@@]3(F)[C@@H](O)C[C@@]21C` [CLOBETASOL PROPIONATE], the concentration at half-maximal activity (AC50) in test [10] is 27 µM; in [8] it was over 30 µM.

With `Cc1nc(Nc2ncc(C(=O)Nc3c(C)cccc3Cl)s2)cc(N2CCN(CCO)CC2)n1` [DASATINIB], the concentration at half-maximal activity (AC50) in test [5], in test [6] and in [7] was over 10 µM throughout.

As for `O=C(O)Cc1ccccc1Nc1c(Cl)cccc1Cl` [DICLOFENAC], the half-maximal activity concentration (AC50) in test [1] is over 10 µM; in test [2], over 30 µM; in [3], over 10 µM; in test [4], over 10 µM; in test [5], over 10 µM; in test [6], over 10 µM. Further, the AC50 in test [7] was over 10 µM.

In the case of `O=C(O)Cc1ccccc1Oc1ccc(Cl)cc1Cl` [FENCLOFENAC], the AC50 in [11] and in test [12] was over 30 µM in each case.

With `Cc1ccc(C)c(OCCCC(C)(C)C(=O)O)c1` [GEMFIBROZIL], the AC50 in test [2] was over 30 µM.

As to `COc1ccccc1OC1(C)OC(=O)c2ccccc2O1` (stereo not given) [GUAIMESAL], the AC50 in [10] and in test [8] was over 30 µM each time.

Turning to `CCCCCCCN(CC)CCCC(O)c1ccc(NS(C)(=O)=O)cc1` (stereo not given) [IBUTILIDE], the concentration at half-maximal activity (AC50) in test [9] is over 30 µM.

`CNC(=C[N+](=O)[O-])NCCSCc1csc(CN(C)C)n1` [NIZATIDINE] displayed an AC50 in test [2] of over 10 µM.

Take `CN1Cc2c(N)cccc2C(c2ccccc2)C1` (stereo not given) [NOMIFENSINE]: the AC50 in test [11] and in [12] was over 30 µM in each case.

Turning to `CN(CCOc1ccc(CC2SC(=O)NC2=O)cc1)c1ccccn1` (stereo not given) [ROSIGLITAZONE], in test [5], the concentration at half-maximal activity (AC50) is over 10 µM.

`COc1cc(C(=O)NS(=O)(=O)c2ccccc2C)ccc1Cc1cn(C)c2ccc(NC(=O)OC3CCCC3)cc12` [ZAFIRLUKAST]: the results for the concentration at half-maximal activity (AC50) in test [13], in [14] and in test [15] were 13 µM, over 30 µM and over 30 µM, respectively.

Take `O=C1Cc2cc(CCN3CCN(c4nsc5ccccc45)CC3)c(Cl)cc2N1` [ZIPRASIDONE]: the AC50 in test [9] is over 50 µM.
